We go through one compound from patent US20250064758A1 (priority 2023, published 2025).

One data set relates to MERS-COV. Type of data set: cell-based. Conditions: plaque assay.
In another data set the test system is SARS-COV. Format: cell-based. Conditions: plaque assay, 24 hpi.
A further data set concerns WT SARS-COV-2. The experiment in a line: Golden Syrian hamster model of WT SARS-COV-2 infection. Type of data set: in vivo. Conditions: 4 dpi.
The test system of the next data set is plasma proteins. The following applies: over a wide range of blood concentrations; cited from earlier work.
For data set [1] the following is noted: in vivo; cited from earlier work.
In another data set the test system is SARS-COV-2. The following applies: hES-CMs, 0.1 MOI, 24 hpi, 50 uM Propranolol.

`CC(C)NCC(O)COc1cccc2ccccc12` (stereo not drawn) [Propranolol, 1-(isopropylamino)-3-(1-naphthyloxy)-2-propanol]: the “number of infectious viruses (viral plaques)” value with MERS-COV and with SARS-COV was “effectively reduced” throughout. Further, in the data set with WT SARS-COV-2 (hamster lung, immunofluorescence staining), the “viral nucleocapsid protein expression in bronchiolar and alveolar epithelia” value is “significantly reduced”. In addition, the “WT SARS-COV-2 genome copies in lung tissues” value in the data set on WT SARS-COV-2 (hamster, 40 mg/kg intraperitoneal from 6 hpi, 4 doses, RT-qPCR, vs mock-treated, p<0.05) is “decreased”. The “infectious virus titer in lung tissues” value with WT SARS-COV-2 (hamster, 40 mg/kg intraperitoneal from 6 hpi, 4 doses, plaque assay, vs mock-treated, p<0.01) is “decreased”. In addition, the “bound to plasma proteins” value with plasma proteins is “more than 90%”. Moreover, in data set [1], the elimination half-life result was “approximately 8 hours”. In addition, the “intracellular SARS-COV-2 viral load” value in the data set on SARS-COV-2 (cell lysate) was “remarkably diminished”. In addition, the “extracellular SARS-COV-2 viral load” value in the data set on SARS-COV-2 (cell supernatant) is given as “remarkably diminished”.
